Measured values taken from ChEMBL document CHEMBL3039007, “Structure-based identification of OATP1B1/3 inhibitors” (Mol Pharmacol, 2013).
Residues, ends and D or L forms follow the SMILES beside them.

Columns and labels:
[1] = target: T1, Solute carrier organic anion transporter family member 1B3 (Homo sapiens, UniProt Q9NPD5); details: chinese hamster, cho, 10 µM
T1 sequence (Q9NPD5 whole entry): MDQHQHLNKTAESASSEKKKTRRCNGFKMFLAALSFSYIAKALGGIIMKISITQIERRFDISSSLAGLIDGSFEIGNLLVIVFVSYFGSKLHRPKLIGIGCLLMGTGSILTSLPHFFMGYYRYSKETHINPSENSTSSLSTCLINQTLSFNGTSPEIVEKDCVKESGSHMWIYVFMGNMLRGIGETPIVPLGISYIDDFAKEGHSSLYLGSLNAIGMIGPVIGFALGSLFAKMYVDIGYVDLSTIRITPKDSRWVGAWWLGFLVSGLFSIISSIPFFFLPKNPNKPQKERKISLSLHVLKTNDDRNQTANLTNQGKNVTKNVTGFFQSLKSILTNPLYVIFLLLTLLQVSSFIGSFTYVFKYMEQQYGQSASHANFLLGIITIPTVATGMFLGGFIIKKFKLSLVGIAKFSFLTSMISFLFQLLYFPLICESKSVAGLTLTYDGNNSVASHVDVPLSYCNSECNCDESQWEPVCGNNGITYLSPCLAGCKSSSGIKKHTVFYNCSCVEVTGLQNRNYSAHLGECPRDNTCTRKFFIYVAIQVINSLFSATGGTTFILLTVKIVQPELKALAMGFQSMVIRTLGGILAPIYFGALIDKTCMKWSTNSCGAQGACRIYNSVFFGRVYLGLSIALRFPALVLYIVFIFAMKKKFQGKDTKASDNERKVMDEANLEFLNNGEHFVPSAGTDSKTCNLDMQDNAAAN

[2] = target: T2, Solute carrier organic anion transporter family member 1B1 (Homo sapiens, UniProt Q9Y6L6); details: chinese hamster, cho, 10 µM
T2 sequence (Q9Y6L6 whole entry): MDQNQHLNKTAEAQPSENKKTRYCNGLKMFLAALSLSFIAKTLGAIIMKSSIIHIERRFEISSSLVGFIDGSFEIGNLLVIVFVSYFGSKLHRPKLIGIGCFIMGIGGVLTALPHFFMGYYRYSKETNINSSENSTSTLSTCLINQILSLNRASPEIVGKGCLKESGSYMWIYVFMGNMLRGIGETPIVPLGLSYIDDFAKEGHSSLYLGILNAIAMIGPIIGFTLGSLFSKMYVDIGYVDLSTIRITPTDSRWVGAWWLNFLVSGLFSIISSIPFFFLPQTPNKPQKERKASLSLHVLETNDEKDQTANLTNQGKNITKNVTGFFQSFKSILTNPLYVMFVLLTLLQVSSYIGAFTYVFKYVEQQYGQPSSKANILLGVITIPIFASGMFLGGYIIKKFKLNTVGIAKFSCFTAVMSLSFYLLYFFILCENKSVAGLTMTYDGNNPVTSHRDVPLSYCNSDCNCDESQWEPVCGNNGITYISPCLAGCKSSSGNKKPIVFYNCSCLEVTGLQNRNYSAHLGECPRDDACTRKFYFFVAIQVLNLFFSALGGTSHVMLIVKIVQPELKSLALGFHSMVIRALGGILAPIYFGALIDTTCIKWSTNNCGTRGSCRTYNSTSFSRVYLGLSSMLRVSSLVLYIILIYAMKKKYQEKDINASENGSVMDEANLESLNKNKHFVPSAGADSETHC

Row | SMILES | residual activity [1] [%] | residual activity [2] [%]
1 | O=[N+]([O-])O[C@H]1CO[C@H]2[C@@H]1OC[C@H]2O[N+](=O)[O-] [ISOSORBIDE DINITRATE] | 114.2 | 86.27
2 | COc1ccc(-c2coc3c(OC)c(OC)cc(OC)c3c2=O)cc1 [ISOTECTORIGENIN TRIMETHYL ETHER] | 118.2 | 133.5
3 | COc1ccc(-c2coc3c(OC)c(OC)cc(O)c3c2=O)cc1 [ISOTECTORIGENIN, 7-METHYL ETHER] | 105 | 135.9
4 | CC1=C(/C=C/C(C)=C/C=C/C(C)=C\C(=O)O)C(C)(C)CCC1 [ISOTRETINOIN] | 51.47 | 32.24
5 | Cc1cc(NC(=O)C2=C(O)c3ccccc3S(=O)(=O)N2C)no1 [ISOXICAM] | 86.6 | 111.2
6 | CC(COc1ccccc1)NC(C)C(O)c1ccc(O)cc1.Cl (stereo not drawn) [ISOXSUPRINE HYDROCHLORIDE] | 77.52 | 38.44
7 | C/C=C(/C)C(=O)O[C@@H]1Cc2c(ccc3ccc(=O)oc23)OC1(C)C [JATAMANSIN] | 153 | 165.1
8 | O=C(O)/C=C/C=C/c1ccccc1 [JUAREZIC ACID] | 88.74 | 102.3
9 | O=C1C=CC(=O)c2c(O)cccc21 [JUGLONE] | 93.79 | 66.93
10 | C=C(C)[C@H]1CN[C@H](C(=O)O)[C@H]1CC(=O)O [KAINIC ACID] | 103.1 | 106.3
11 | C[C@@H]1O[C@@H](O[C@H]2[C@H](O[C@H]3CC[C@@]4(C)[C@@H](CC[C@]5(C)[C@@H]4CC=C4[C@@H]6CC(C)(C)CC[C@]6(C(=O)O[C@@H]6O[C@H](CO[C@@H]7O[C@H](CO)[C@@H](O[C@@H]8O[C@@H](C)[C@H](O)[C@@H](O)[C@H]8O)[C@H](O)[C@H]7O)[C@@H](O)[C@H](O)[C@H]6O)CC[C@]45C)[C@]3(C)CO)OC[C@H](O)[C@@H]2O)[C@H](O)[C@H](O)[C@H]1O [KALOPANAXSAPONIN B] | 109.8 | 127.7
12 | COc1c(-c2ccccc2)oc2c(ccc3occc32)c1=O [KARANJIN] | 124.7 | 50.39
13 | Oc1cc(O)c2c(c1)O[C@H](c1cc(O)c(O)c(O)c1)[C@H](O)[C@H]2c1c(O)cc(O)c2c1O[C@H](c1cc(O)c(O)c(O)c1)[C@H](O)[C@H]2c1c(O)cc(O)c2c1O[C@H](c1cc(O)c(O)c(O)c1)[C@H](O)C2 [KATACINE] | 99.79 | 133.4
14 | NC(CO)(CO)CO.O=C(c1ccccc1)c1ccc2n1CCC2C(=O)O (stereo not drawn) [KETOROLAC TROMETHAMINE] | 87.08 | 196.1
15 | c1coc(CNc2ncnc3[nH]cnc23)c1 [KINETIN] | 100.6 | 96.48
16 | O=c1cc(CO)occ1O [KOJIC ACID] | 80.38 | 79.88
17 | N[C@H](CO)Cc1ccccc1 [L-PHENYLALANINOL] | 101.5 | 77.2
18 | CC(=O)O[C@H]1C[C@H](O[C@H]2[C@@H](O)C[C@H](O[C@H]3[C@@H](O)C[C@H](O[C@H]4CC[C@@]5(C)[C@H](CC[C@@H]6[C@@H]5C[C@@H](O)[C@]5(C)[C@@H](C7=CC(=O)OC7)CC[C@]65O)C4)O[C@@H]3C)O[C@@H]2C)O[C@H](C)[C@H]1O[C@@H]1O[C@H](CO)[C@@H](O)[C@H](O)[C@H]1O [LANATOSIDE C] | 86.15 | 102.5
19 | CC(C)=CCC[C@@H](C)[C@H]1CC[C@@]2(C)C3=C(CC[C@]12C)[C@@]1(C)CC[C@H](O)C(C)(C)[C@@H]1CC3 [LANOSTEROL] | 90.91 | 53.97
20 | Cc1c(OCC(F)(F)F)ccnc1C[S+]([O-])c1nc2ccccc2[nH]1 (stereo not drawn) [LANSOPRAZOLE] | 100.5 | 95.47
21 | CC(C)=CCC1=C(O)C(=O)c2ccccc2C1=O [LAPACHOL] | 108.2 | 115.5
22 | COc1ccc(CC2c3cc(OC)c(OC)cc3CCN2C)cc1OC (stereo not drawn) [LAUDANOSINE] | 114.7 | 107.4

Next, values leading:

Row | residual activity [1] [%] | residual activity [2] [%] | SMILES
23 | 89.36 | 94.79 | CN1CCC(=C2c3ccccc3CC(=O)c3sccc32)CC1.O=C(O)/C=C/C(=O)O [KETOTIFEN FUMARATE]
24 | 67.18 | 59.29 | CCC(=O)OC1[C@@H]2CC3=C4CC(=O)O[C@@H](c5ccoc5)[C@]4(C)CCC3[C@@](C)(C2=O)[C@@H](CC(=O)OC)C1(C)C (stereo partly drawn) [KHAYASIN C]
25 | 83.34 | 98.52 | CCC(C)C(=O)OC1[C@@H]2CC3=C4CC(=O)O[C@@H](c5ccoc5)[C@]4(C)CCC3[C@@](C)(C2=O)[C@@H](CC(=O)OC)C1(C)C (stereo partly drawn) [KHAYASIN]
26 | 102.2 | 83.15 | COc1c2occc2c(OC)c2c(=O)cc(C)oc12 [KHELLIN]
27 | 94.96 | 77.22 | CC(=O)O[C@H]1C[C@@H](OC(C)=O)C(C)(C)[C@@H]2C[C@@H](OC(C)=O)[C@]3(C)[C@H](CC[C@@]4(C)[C@H](c5ccoc5)OC(=O)[C@H]5O[C@@]534)[C@@]12C [KHIVORIN]
28 | 96.23 | 85.61 | COc1ccc(-c2coc3cc(O)ccc3c2=O)c(OC)c1O [KHRINONE E]
29 | 112 | 114.7 | OC[C@H]1O[C@@H](n2cnc3c(NCc4ccco4)ncnc32)[C@H](O)[C@@H]1O [KINETIN RIBOSIDE]
30 | 84.64 | 64.48 | CC1(C)C[C@@H]2C(=O)CC[C@H]3O[C@]3(C)CC[C@H]21 [KOBUSONE]
31 | 86.85 | 88.35 | COc1ccc(-c2coc3cc(O)ccc3c2=O)c(O)c1O [KOPARIN]
32 | 118.4 | 128.2 | COc1c(O)cc2c(-c3ccccc3)cc(=O)oc2c1OC [KUHLMANNIN]
33 | 89.22 | 113.9 | NCCC(=O)c1ccccc1N [KYNURAMINE]
34 | 67.15 | 58.07 | Nc1ccccc1C(=O)CC(N)C(=O)O (stereo not drawn) [KYNURENINE]
35 | 104 | 73.39 | C[C@H](N)CO [L-ALANINOL]
36 | 119.7 | 135.1 | NC(=O)NCCC[C@H](N)C(=O)O [L-CITRULLINE]
37 | 101.4 | 93.55 | CC(CCc1ccccc1)NCC(O)c1ccc(O)c(C(N)=O)c1.Cl (stereo not drawn) [LABETALOL HYDROCHLORIDE]
38 | 104.9 | 90.31 | OC[C@H]1O[C@@H](O[C@@H]2[C@@H](CO)O[C@](O)(CO)[C@H]2O)[C@H](O)[C@@H](O)[C@H]1O [LACTULOSE]
39 | 95.67 | 99.12 | C[C@@H]1CC[C@H]2[C@](C)(CO)[C@@H](O)CC[C@]2(C)[C@@]12CC[C@@](CO)(CCO)O2 [LAGOCHILINE]
40 | 101.6 | 99.76 | O=C1C=C(O)C(=O)c2ccccc21 [LAWSONE]
41 | 60.79 | 61.21 | Cc1cc(OC(=O)c2c(C)cc(O)cc2O)cc(O)c1C(=O)O [LECANORIC ACID]
42 | 96.54 | 93.04 | CC(C)C[C@H](N)C(=O)N[C@@H](C)C(=O)O [LEU-ALA] (H-Leu-Ala-OH)
43 | 98.11 | 136.6 | N=c1[nH]c(=O)c2[nH]c(=O)c(=O)[nH]c2[nH]1 [LEUCOPTERIN]
44 | 90.54 | 80.81 | Nc1nc(=O)c2c([nH]1)NCC(CNc1ccc(C(=O)N[C@@H](CCC(=O)[O-])C(=O)[O-])cc1)N2C=O.[Ca+2] (stereo partly drawn) [LEUCOVORIN CALCIUM]
